Laboratory results reported in US11059795B2, “Androgen receptor modulators and methods for their use” (ESSA Pharma, Inc., priority 2018, dated 2021).

Legend:
[1] = molecular target: T1, LBD of glucocorticoid receptor (GR) fused to DBD of GAL4 (Homo sapiens, UniProt P04150); assay: LBD-expressing reporter assay (GeneBLAzer), GR LBD; format: cell-based; conditions: inhibition of maximal activity attained with agonist; read-out: Steroid Receptor LBD IC50 (μM) GR
T1 sequence (P04150 524-758 limits assumed): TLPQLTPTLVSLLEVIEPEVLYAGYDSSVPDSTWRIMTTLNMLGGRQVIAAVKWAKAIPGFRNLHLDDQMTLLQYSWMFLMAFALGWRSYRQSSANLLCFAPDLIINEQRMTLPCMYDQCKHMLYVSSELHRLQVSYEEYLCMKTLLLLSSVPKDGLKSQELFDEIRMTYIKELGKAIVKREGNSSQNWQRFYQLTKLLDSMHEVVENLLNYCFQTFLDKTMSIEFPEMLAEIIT
Description: This assay uses cells that stably express a chimera fusion protein comprising the LBD of a steroid hormone receptor fused to the DNA-binding domain (DBD) of GAL4 along with beta-lactamase reporter under transcriptional control of an upstream activator sequence (UAS). When agonist binds to the LBD of the GAL4 (DBD)-steroid hormone (LBD) chimera fusion protein, the protein binds to the UAS, resulting in expression of beta-lactamase. LBDs of androgen receptor (AR), progesterone receptor-beta (PRβ), glucocorticoid receptor (GR), estrogen receptor-α (ERα), and estrogen receptor-β (ERβ) were tested and IC50s calculated for inhibiting maximal activity attained with agonist.

[2] = Microsomal stability assay, mouse liver microsomes; format: in vitro ADME; conditions: for microsomal CLint at 1 μM: mouse, liver microsomes, pH 7.4, mouse liver microsomes, 1 μM compound, 0.5 mg/mL protein, 37° C., read-out: MLM +30/− NADPH: Clint (μL/min/mg protein); for half-life at 1 μM: pH 7.4, mouse liver microsomes, read-out: Liver microsome T½ (min) Mouse
Method in brief: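 Compound at 1 μM was incubated at 37° C with 0.5 mg/mL liver microsomes and 1 mM NADPH and/or 1 mM UDPGA (with alamethicin) in 100 mM potassium phosphate pH 7.4, 3 mM MgCl2. Samples were taken at 0, 15, 30 and 60 min and measured by LC/MS/MS. t½ came from compound loss relative to 0 min, and Clint was scaled with 45 mg microsomal protein/g liver.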

[3] = Microsomal stability assay, dog liver microsomes; format: in vitro ADME; conditions: pH 7.4, read-out: Liver microsome T½ (min) Dog
Experimental: Microsomal stability assay is a widely used in vitro model to characterize the metabolic conversion by phase I enzymes, such as cytochrome P450 (CYP) enzymes. Since metabolism is known to be highly variable in different species, microsomal stability assay is commonly run in multiple species. Metabolic stability of testing compound can be evaluated using human, rat, mouse, or other animal liver or intestine microsomes to predict intrinsic clearance.
The assay was carried out in 96-well microtiter plates at 37° C. Reaction mixtures (25 μL) contained a final concentration of 1 μM test compound, 0.5 mg/mL liver microsomes protein, and 1 mM NADPH and/or 1 mM UDPGA (with alamethicin) in 100 mM potassium phosphate, pH 7.4 buffer with 3 mM MgCl2. The incubation was done with N=1, but duplicate incubation at each time point can be prepared if necessary. At each of the time points (for example, 0, 15, 30, and 60 minutes), 150 μL of quench solution (100% acetonitrile with 0.1% formic acid) with internal standard was transferred to each well. Besides the zero minute controls, mixtures containing the same components except the NADPH can also be prepared as the negative control. Verapamil was included as a positive control to verify assay performance. Plates were sealed, vortexed, and centrifuged at 4° C. for 15 minutes at 4000 rpm. The supernatant is transferred to fresh plates for LC/MS/MS analysis.
Summarized conditions: [Compound]=[…], [LM]=0.5 mg/mL, [NADPH]=1 mM and/or [UDPGA]=1 mM, Buffer=100 mM Potassium Phosphate, pH 7.4 with 3 mM MgCl2, Time=0, 15, 30, and 60 min, and Temperature=37° C.
All samples were analyzed on LC/MS/MS using an AB Sciex API 4000 instrument, coupled to a Shimadzu LC-20AD LC Pump system. Analytical samples were separated using a Waters Atlantis T3 dC18 reverse phase HPLC column (20 mm×2.1 mm) at a flow rate of 0.5 mL/min. The mobile phase consisted of 0.1% formic acid in water (solvent A) and 0.1% formic acid in 100% acetonitrile (solvent B).
The extent of metabolism is calculated as the disappearance of the test compound, compared to the 0-min time incubation. Initial rates are calculated for the compound concentration and used to determine half-life (t½) values and subsequently, the intrinsic clearance (Clint). Clint=(0.693)(1/t½ (min))(g of liver/kg of body weight)(mL incubation/mg of microsomal protein)(45 mg of microsomal protein/g of liver weight)

[4] = Hepatocyte stability assay, mouse hepatocytes; format: in vitro ADME; conditions: cryopreserved hepatocytes; for half-life at 1 μM: read-out: Hepatocytes T½ (min) Mouse; for hepatocyte CLint at 1 μM: mouse, 1 μM compound, 0.5 million cells/mL, 37° C., read-out: MH +/− NADPH: Clint (μL/min/million cells)
Method in brief: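 Cryopreserved rat, human or mouse hepatocytes at 0.5 million cells/mL in DMEM with 1 μM compound, 37° C, sampled at 0, 60, 120 and 180 min and quenched with acetonitrile/formic acid. Parent loss vs 0-min by LC/MS/MS gave t½, and Clint = 0.693/t½ × mL incubation/million cells.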

Compound	IC50 [1] [µM]	microsomal CLint at 1 μM [2] [µL/min/mg]	half-life at 1 μM [2] [min]	half-life at 1 μM [3] [min]	half-life at 1 μM [4] [min]	hepatocyte CLint at 1 μM [4] [µL/min/1e6 cells]
CC(C)(c1ccc(OCc2nc(S(C)(=O)=O)cs2)cc1)c1cc(Cl)c(OCCCl)c(C#N)c1 [Compound A136, 3-Chloro-2-(2-chloroethoxy)-5-(2-(4-((4-(methylsulfonyl)thiazol-2-yl)methoxy)phenyl)propan-2-yl)benzonitrile]		12 to 48				4 to 18
CC(C)(c1ccc(OCc2ocnc2S(C)(=O)=O)cc1)c1cc(Cl)c(OCCCl)c(Cl)c1 [Compound A13, 5-((4-(2-(3,5-dichloro-4-(2-chloroethoxy)phenyl)propan-2-yl)phenoxy)methyl)-4-(methylsulfonyl)oxazole]	> 10	< 12	> 120	> 120	203	4 to 18
CC(C)(c1ccc(OCc2ccnc(NS(C)(=O)=O)n2)cc1)c1cc(Cl)c(OCCCl)c(C#N)c1 [Compound A109, N-(4-((4-(2-(3-chloro-4-(2-chloroethoxy)-5-cyanophenyl)propan-2-yl)phenoxy)methyl)pyrimidin-2-yl)methanesulfonamide]	> 10	< 12	> 120	> 120	> 360	< 4
CC(C)(c1ccc(OC[C@H](O)CNS(C)(=O)=O)cc1)c1cc(Cl)c(OC[C@H](O)CCl)c(Cl)c1 [X, reference compound]	> 10				33	
Cc1cnc(NS(C)(=O)=O)nc1COc1ccc(C(C)(C)c2cc(Cl)c(OCCCl)c(C#N)c2)cc1 [Compound A122, N-(4-((4-(2-(3-Chloro-4-(2-chloroethoxy)-5-cyanophenyl)propan-2-yl)phenoxy)methyl)-5-methylpyrimidin-2-yl)methanesulfonamide]		12 to 48				4 to 18
C[C@H](Oc1ccc(C(C)(C)c2cc(Cl)c(OCCCl)c(C#N)c2)cc1)c1ccnc(NS(C)(=O)=O)n1 (single isomer, unassigned) [Compound A170]		< 12				< 4
CC(C)(c1ccc(OCc2ocnc2S(C)(=O)=O)cc1)c1cc(Cl)c(OCCCl)c(C#N)c1 [Compound A28, 3-chloro-2-(2-chloroethoxy)-5-(2-(4-((4-(methylsulfonyl)oxazol-5-yl)methoxy)phenyl)propan-2-yl)benzonitrile]	> 10	12 to 48	74	> 120	86	4 to 18

More lines, now with the values ahead:

IC50 [1] [µM]	microsomal CLint at 1 μM [2] [µL/min/mg]	half-life at 1 μM [2] [min]	half-life at 1 μM [3] [min]	half-life at 1 μM [4] [min]	hepatocyte CLint at 1 μM [4] [µL/min/1e6 cells]	Compound
> 10	< 12	> 120	> 120	> 360	< 4	CC(C)(c1ccc(OCc2coc(NS(C)(=O)=O)n2)cc1)c1cc(Cl)c(OCCCl)c(Cl)c1 [Compound A38, N-(4-((4-(2-(3,5-dichloro-4-(2-chloroethoxy)phenyl)propan-2-yl)phenoxy)methyl)oxazol-2-yl)methanesulfonamide]
> 10	< 12	> 120	> 120	> 360	< 4	CC(C)(c1ccc(OCc2ncc(S(C)(=O)=O)s2)cc1)c1cc(Cl)c(OCCCl)c(C#N)c1 [Compound A93, 3-chloro-2-(2-chloroethoxy)-5-(2-(4-((5-(methylsulfonyl)thiazol-2-yl)methoxy)phenyl)propan-2-yl)benzonitrile]
	< 12				< 4	CCS(=O)(=O)Nc1nc(COc2ccc(C(C)(C)c3cc(Cl)c(OCCCl)c(C#N)c3)cc2)co1 [Compound A126]
	< 12				< 4	CCS(=O)(=O)Nc1nccc(COc2ccc(C(C)(C)c3cc(Cl)c(OCCCl)c(C#N)c3)cc2)n1 [Compound A131]
9.51	< 12	> 120	> 120			CC(C)(c1ccc(OCc2ccnc(NS(C)(=O)=O)n2)cc1)c1cc(Cl)c(OCCCl)c(Cl)c1 [Compound A74, N-(4-((4-(2-(3,5-dichloro-4-(2-chloroethoxy)phenyl)propan-2-yl)phenoxy)methyl)pyrimidin-2-yl)methanesulfonamide]
